Laboratory results: patent US20230085307A1, “PYRIDAZINONE COMPOUND AND HERBICIDE” (NISSAN CHEMICAL CORPORATION, priority 2019, published 2023)

How the values were obtained:
lambsquarters [1] = assay: Test Example 5: herbicidal effect by foliage application, plastic box (Table 20, symbol O); format: in vivo, lambsquarters (Chenopodium album); conditions: foliage application, AAH 320 g/ha, evaluated three weeks after application
Method in brief: (§1)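 Foliar spray test: emulsion formulation diluted in water to a set application rate, sprayed onto 14-day-old plants raised in diluvial soil at 25° C to 30° C under glass. Both herbicidal effect and crop effect rated visually three weeks later.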

velvetleaf [2] = assay: Test Example 4: herbicidal effect by soil treatment (Table 19, symbol M); format: in vivo, velvetleaf (Abutilon theophrasti); conditions: amount of applied herbicide 320 g/ha
Method in brief: (§2)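 Herbicidal effect was rated 3 weeks after treatment, using the scoring criteria of an earlier test. The compound, formulated as an emulsion and diluted in water to a set herbicide amount, had been sprayed uniformly on soil over freshly sown seeds. Growth took place in a greenhouse at 25° C. to 30° C.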

Italian ryegrass [3] = assay: Test Example 4: herbicidal effect by soil treatment (Table 19, symbol K); format: in vivo, Italian ryegrass (Lolium multiflorum); conditions: amount of applied herbicide 320 g/ha
Method in brief: as §2

southern crabgrass [4] = assay: Test Example 4: herbicidal effect by soil treatment (Table 19, symbol F); format: in vivo, southern crabgrass (Digitaria ciliaris); conditions: amount of applied herbicide 320 g/ha
Method in brief: as §2

persian speedwell [5] = assay: Test Example 4: herbicidal effect by soil treatment (Table 19, symbol R); format: in vivo, Persian speedwell (Veronica persica); conditions: amount of applied herbicide 320 g/ha
Method in brief: as §2

chickweed [6] = assay: Test Example 4: herbicidal effect by soil treatment (Table 19, symbol P); format: in vivo, common chickweed (Stellaria media); conditions: amount of applied herbicide 320 g/ha
Method in brief: as §2

velvetleaf [7] = assay: Test Example 5: herbicidal effect by foliage application, plastic box (Table 20, symbol M); format: in vivo, velvetleaf (Abutilon theophrasti); conditions: foliage application, AAH 320 g/ha, evaluated three weeks after application
Method in brief: as §1

lambsquarters [8] = assay: Test Example 4: herbicidal effect by soil treatment (Table 19, symbol O); format: in vivo, lambsquarters (Chenopodium album); conditions: amount of applied herbicide 320 g/ha
Method in brief: as §2

oval-leafed pondweed = assay: Test Example 1: herbicidal activity, application before weed generation under submerged conditions (Table 16, symbol C); format: in vivo, oval-leafed pondweed (Monochoria vaginalis)
Method in brief: (§3)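 Emulsion formulation, water-diluted to set dose, was put onto the flooded surface (4 cm depth, alluvial soil) the same day weeds were sown and 2.5-leaf rice transplanted. After 3 weeks at 25-30 °C under glass, each species was rated 0 (≤5% kill) to 5 (≥90% kill).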

green foxtail [9] = assay: Test Example 4: herbicidal effect by soil treatment (Table 19, symbol G); format: in vivo, green foxtail (Setaria viridis); conditions: amount of applied herbicide 320 g/ha
Method in brief: as §2

barnyard grass [10] = assay: Test Example 3: herbicidal effect by foliage application, Wagner pot (Table 18, symbol H); format: in vivo, barnyard grass (Echinochloa crus-galli); conditions: amount of applied herbicide 320 g/ha
Method in brief: (§4)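 Plants were sown in alluvial soil held under 0.1–0.5 cm standing water and grown 14 days in a greenhouse at 25–30 °C. An emulsifiable formulation, water-diluted to the set dose, was then sprayed onto the foliage, and effects were scored three weeks later using previously defined criteria.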

windgrass [11] = assay: Test Example 4: herbicidal effect by soil treatment (Table 19, symbol L); format: in vivo, windgrass (Apera spica-venti); conditions: amount of applied herbicide 320 g/ha
Method in brief: as §2

Italian ryegrass [12] = assay: Test Example 5: herbicidal effect by foliage application, plastic box (Table 20, symbol K); format: in vivo, Italian ryegrass (Lolium multiflorum); conditions: foliage application, AAH 320 g/ha, evaluated three weeks after application
Method in brief: as §1

southern crabgrass [13] = assay: Test Example 5: herbicidal effect by foliage application, plastic box (Table 20, symbol F); format: in vivo, southern crabgrass (Digitaria ciliaris); conditions: foliage application, AAH 320 g/ha, evaluated three weeks after application
Method in brief: as §1

barnyard grass [14] = assay: Test Example 5: herbicidal effect by foliage application, plastic box (Table 20, symbol H); format: in vivo, barnyard grass (Echinochloa crus-galli); conditions: foliage application, AAH 320 g/ha, evaluated three weeks after application
Method in brief: as §1

wild oat [15] = assay: Test Example 4: herbicidal effect by soil treatment (Table 19, symbol I); format: in vivo, wild oat (Avena fatua); conditions: amount of applied herbicide 320 g/ha
Method in brief: as §2

late watergrass = assay: Test Example 1: herbicidal activity, application before weed generation under submerged conditions (Table 16, symbol A); format: in vivo, late watergrass (Echinochloa oryzicola)
Method in brief: as §3

Japanese bulrush = assay: Test Example 1: herbicidal activity, application before weed generation under submerged conditions (Table 16, symbol B); format: in vivo, Japanese bulrush (Schoenoplectus juncoides)
Method in brief: as §3

redroot pigweed [16] = assay: Test Example 5: herbicidal effect by foliage application, plastic box (Table 20, symbol N); format: in vivo, redroot pigweed (Amaranthus retroflexus); conditions: foliage application, AAH 320 g/ha, evaluated three weeks after application
Method in brief: as §1

persian speedwell [17] = assay: Test Example 5: herbicidal effect by foliage application, plastic box (Table 20, symbol R); format: in vivo, Persian speedwell (Veronica persica); conditions: foliage application, AAH 320 g/ha, evaluated three weeks after application
Method in brief: as §1

chickweed [18] = assay: Test Example 5: herbicidal effect by foliage application, plastic box (Table 20, symbol P); format: in vivo, common chickweed (Stellaria media); conditions: foliage application, AAH 320 g/ha, evaluated three weeks after application
Method in brief: as §1

rice flat sedge = assay: Test Example 3: herbicidal effect by foliage application, Wagner pot (Table 18, symbol E); format: in vivo, rice flat sedge (Cyperus iria); conditions: amount of applied herbicide 320 g/ha
Method in brief: as §4

green foxtail [19] = assay: Test Example 5: herbicidal effect by foliage application, plastic box (Table 20, symbol G); format: in vivo, green foxtail (Setaria viridis); conditions: foliage application, AAH 320 g/ha, evaluated three weeks after application
Method in brief: as §1

wild oat [20] = assay: Test Example 5: herbicidal effect by foliage application, plastic box (Table 20, symbol I); format: in vivo, wild oat (Avena fatua); conditions: foliage application, AAH 320 g/ha, evaluated three weeks after application
Method in brief: as §1

barnyard grass [21] = assay: Test Example 4: herbicidal effect by soil treatment (Table 19, symbol H); format: in vivo, barnyard grass (Echinochloa crus-galli); conditions: amount of applied herbicide 320 g/ha
Method in brief: as §2

windgrass [22] = assay: Test Example 5: herbicidal effect by foliage application, plastic box (Table 20, symbol L); format: in vivo, windgrass (Apera spica-venti); conditions: foliage application, AAH 320 g/ha, evaluated three weeks after application
Method in brief: as §1

blackgrass [23] = assay: Test Example 4: herbicidal effect by soil treatment (Table 19, symbol J); format: in vivo, blackgrass (Alopecurus myosuroides); conditions: amount of applied herbicide 320 g/ha
Method in brief: as §2

blackgrass [24] = assay: Test Example 5: herbicidal effect by foliage application, plastic box (Table 20, symbol J); format: in vivo, blackgrass (Alopecurus myosuroides); conditions: foliage application, AAH 320 g/ha, evaluated three weeks after application
Method in brief: as §1

Chinese sprangletop = assay: Test Example 3: herbicidal effect by foliage application, Wagner pot (Table 18, symbol D); format: in vivo, chinese sprangletop (Leptochloa chinensis); conditions: amount of applied herbicide 320 g/ha
Method in brief: as §4

redroot pigweed [25] = assay: Test Example 4: herbicidal effect by soil treatment (Table 19, symbol N); format: in vivo, redroot pigweed (Amaranthus retroflexus); conditions: amount of applied herbicide 320 g/ha
Method in brief: as §2

[26] = amount of applied herbicide 320 g/ha

Cc1nn(C)c(=O)c(-c2c(-c3ccc(F)c(F)c3)sc3ccc(F)cc23)c1O [2-344]
O: lambsquarters, herbicidal effect (criteria 0-5) (lambsquarters [1]): 4 (Herbicidal rate of 70% or more and less than 90%) | herbicidal effect on M: velvetleaf (velvetleaf [2]): 3 (Herbicidal rate of 40% or more and less than 70%) | herbicidal effect on K: Italian ryegrass (Italian ryegrass [3]): 5 (Herbicidal rate of 90% or more (almost completely withered)) | herbicidal effect on F: southern crabgrass (southern crabgrass [4]): 5 (Herbicidal rate of 90% or more (almost completely withered)) | herbicidal effect on R: persian speedwell (persian speedwell [5]): 5 (Herbicidal rate of 90% or more (almost completely withered)) | herbicidal effect on P: chickweed (chickweed [6]): 4 (Herbicidal rate of 70% or more and less than 90%) | M: velvetleaf, herbicidal effect (criteria 0-5) (velvetleaf [7]): 5 (Herbicidal rate of 90% or more (almost completely withered)) | herbicidal effect on O: lambsquarters (lambsquarters [8]): 5 (Herbicidal rate of 90% or more (almost completely withered)) | Herbicidal effect on C: oval-leafed pondweed (grade 0-5) (oval-leafed pondweed; 320 g/ha applied herbicide): 0 (Herbicidal rate of 5% or less (almost no effect)) | herbicidal effect on G: green foxtail (green foxtail [9]): 5 (Herbicidal rate of 90% or more (almost completely withered)) | herbicidal effect on H: barnyard grass (barnyard grass [10]): 5 (Herbicidal rate of 90% or more (almost completely withered)) | herbicidal effect on L: windgrass (windgrass [11]): 0 (Herbicidal rate of 5% or less (almost no effect)) | K: Italian ryegrass, herbicidal effect (criteria 0-5) (Italian ryegrass [12]): 5 (Herbicidal rate of 90% or more (almost completely withered)) | F: southern crabgrass, herbicidal effect (criteria 0-5) (southern crabgrass [13]): 5 (Herbicidal rate of 90% or more (almost completely withered)) | H: barnyard grass, herbicidal effect (criteria 0-5) (barnyard grass [14]): 5 (Herbicidal rate of 90% or more (almost completely withered)) | herbicidal effect on I: wild oat (wild oat [15]): 0 (Herbicidal rate of 5% or less (almost no effect)) | Herbicidal effect on A: late watergrass (grade 0-5) (late watergrass; 320 g/ha applied herbicide): 0 (Herbicidal rate of 5% or less (almost no effect)) | Herbicidal effect on B: Japanese bulrush (grade 0-5) (Japanese bulrush; 320 g/ha applied herbicide): 2 (Herbicidal rate of 20% or more and less than 40%) | N: redroot pigweed, herbicidal effect (criteria 0-5) (redroot pigweed [16]): 5 (Herbicidal rate of 90% or more (almost completely withered)) | R: persian speedwell, herbicidal effect (criteria 0-5) (persian speedwell [17]): 5 (Herbicidal rate of 90% or more (almost completely withered)) | P: chickweed, herbicidal effect (criteria 0-5) (chickweed [18]): 5 (Herbicidal rate of 90% or more (almost completely withered)) | herbicidal effect on E: rice flat sedge (rice flat sedge): 5 (Herbicidal rate of 90% or more (almost completely withered)) | G: green foxtail, herbicidal effect (criteria 0-5) (green foxtail [19]): 5 (Herbicidal rate of 90% or more (almost completely withered)) | I: wild oat, herbicidal effect (criteria 0-5) (wild oat [20]): 3 (Herbicidal rate of 40% or more and less than 70%) | herbicidal effect on H: barnyard grass (barnyard grass [21]): 4 (Herbicidal rate of 70% or more and less than 90%) | L: windgrass, herbicidal effect (criteria 0-5) (windgrass [22]): 5 (Herbicidal rate of 90% or more (almost completely withered)) | herbicidal effect on J: blackgrass (blackgrass [23]): 0 (Herbicidal rate of 5% or less (almost no effect)) | J: blackgrass, herbicidal effect (criteria 0-5) (blackgrass [24]): 2 (Herbicidal rate of 20% or more and less than 40%) | herbicidal effect on D: Chinese sprangletop (Chinese sprangletop): 4 (Herbicidal rate of 70% or more and less than 90%) | herbicidal effect on N: redroot pigweed (redroot pigweed [25]): 5 (Herbicidal rate of 90% or more (almost completely withered))

CCCC(=O)Oc1c(C)nn(C)c(=O)c1-c1c(-c2cnccc2C(F)(F)F)sc2ccc(F)cc12 [2-388]
O: lambsquarters, herbicidal effect (criteria 0-5) (lambsquarters [1]): 4 (Herbicidal rate of 70% or more and less than 90%) | herbicidal effect, M: velvetleaf (velvetleaf [2]): 0 (Herbicidal rate of 5% or less (almost no effect)) | herbicidal effect, K: Italian ryegrass (Italian ryegrass [3]): 0 (Herbicidal rate of 5% or less (almost no effect)) | herbicidal effect, F: southern crabgrass (southern crabgrass [4]): 0 (Herbicidal rate of 5% or less (almost no effect)) | herbicidal effect, R: persian speedwell (persian speedwell [5]): 5 (Herbicidal rate of 90% or more (almost completely withered)) | herbicidal effect, P: chickweed (chickweed [6]): 5 (Herbicidal rate of 90% or more (almost completely withered)) | M: velvetleaf, herbicidal effect (criteria 0-5) (velvetleaf [7]): 5 (Herbicidal rate of 90% or more (almost completely withered)) | herbicidal effect, O: lambsquarters (lambsquarters [8]): 2 (Herbicidal rate of 20% or more and less than 40%) | Herbicidal effect, C: oval-leafed pondweed (oval-leafed pondweed; [26]): 0 (Herbicidal rate of 5% or less (almost no effect)) | herbicidal effect, G: green foxtail (green foxtail [9]): 0 (Herbicidal rate of 5% or less (almost no effect)) | herbicidal effect on H: barnyard grass (barnyard grass [10]): 5 (Herbicidal rate of 90% or more (almost completely withered)) | herbicidal effect, L: windgrass (windgrass [11]): 0 (Herbicidal rate of 5% or less (almost no effect)) | K: Italian ryegrass, herbicidal effect (criteria 0-5) (Italian ryegrass [12]): 3 (Herbicidal rate of 40% or more and less than 70%) | F: southern crabgrass, herbicidal effect (criteria 0-5) (southern crabgrass [13]): 1 (Herbicidal rate of 5% or more and less than 20%) | H: barnyard grass, herbicidal effect (criteria 0-5) (barnyard grass [14]): 4 (Herbicidal rate of 70% or more and less than 90%) | herbicidal effect, I: wild oat (wild oat [15]): 0 (Herbicidal rate of 5% or less (almost no effect)) | Herbicidal effect, A: late watergrass (late watergrass; [26]): 5 (Herbicidal rate of 90% or more (almost completely withered)) | Herbicidal effect, B: Japanese bulrush (Japanese bulrush; [26]): 0 (Herbicidal rate of 5% or less (almost no effect)) | N: redroot pigweed, herbicidal effect (criteria 0-5) (redroot pigweed [16]): 4 (Herbicidal rate of 70% or more and less than 90%) | R: persian speedwell, herbicidal effect (criteria 0-5) (persian speedwell [17]): 5 (Herbicidal rate of 90% or more (almost completely withered)) | P: chickweed, herbicidal effect (criteria 0-5) (chickweed [18]): 5 (Herbicidal rate of 90% or more (almost completely withered)) | herbicidal effect on E: rice flat sedge (rice flat sedge): 3 (Herbicidal rate of 40% or more and less than 70%) | G: green foxtail, herbicidal effect (criteria 0-5) (green foxtail [19]): 3 (Herbicidal rate of 40% or more and less than 70%) | I: wild oat, herbicidal effect (criteria 0-5) (wild oat [20]): 3 (Herbicidal rate of 40% or more and less than 70%) | herbicidal effect, H: barnyard grass (barnyard grass [21]): 3 (Herbicidal rate of 40% or more and less than 70%) | L: windgrass, herbicidal effect (criteria 0-5) (windgrass [22]): 4 (Herbicidal rate of 70% or more and less than 90%) | herbicidal effect, J: blackgrass (blackgrass [23]): 0 (Herbicidal rate of 5% or less (almost no effect)) | J: blackgrass, herbicidal effect (criteria 0-5) (blackgrass [24]): 1 (Herbicidal rate of 5% or more and less than 20%) | herbicidal effect on D: Chinese sprangletop (Chinese sprangletop): 3 (Herbicidal rate of 40% or more and less than 70%) | herbicidal effect, N: redroot pigweed (redroot pigweed [25]): 1 (Herbicidal rate of 5% or more and less than 20%)
